# Target: T1, human renin (Homo sapiens, UniProt P00797)
# T1 construct: A human plasma pool is used as the source of both the substrate (angiotensinogen) and the enzyme (renin); from tissue; host or cells: human plasma pool
# T1 sequence (P00797 67-406): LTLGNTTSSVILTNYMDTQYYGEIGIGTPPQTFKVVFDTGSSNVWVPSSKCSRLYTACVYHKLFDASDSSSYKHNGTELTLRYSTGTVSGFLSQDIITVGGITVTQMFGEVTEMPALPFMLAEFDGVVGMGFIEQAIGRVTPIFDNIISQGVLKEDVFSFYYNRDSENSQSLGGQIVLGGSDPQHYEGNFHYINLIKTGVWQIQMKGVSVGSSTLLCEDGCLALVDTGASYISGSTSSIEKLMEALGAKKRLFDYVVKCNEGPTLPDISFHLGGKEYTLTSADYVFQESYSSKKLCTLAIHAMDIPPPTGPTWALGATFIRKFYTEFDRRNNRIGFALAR
# Experiment: Plasma renin assay (angiotensin I generated in human plasma pool, RIA)
# Assay type: biochemical
# Conditions: human plasma pool as source of renin and angiotensinogen; pH 6.0; 2 h at 37°; 1% dimethylsulfoxide
# Method: The assay is performed as follows: The test compound (i.e. the inhibitor) is dissolved in dimethylsulfoxide(1mM stock solution) and diluted with an aqueous buffer solution of 270 mM 2-(N-morpholino)ethanesulfonic acid and 1% human serum albumin (pH 5.85, also containing dimercaprol and 8-hydroxyquinoline sulfate in accordance with the instructions of the RIA kit noted below) to give an assay mixture in which the final dimethylsulfoxide content is 1% (v/v).
# A human plasma pool is used as the source of both the substrate (angiotensinogen) and the enzyme (renin). The reaction is initiated by the addition of 50 μL of human plasma pool to 50 μL of various concentrations of inhibitor in the 1% dimethylsulfoxide assay buffer. The plasma renin activity is measured by the amount of angiotensin I generated at pH 6.0 following a 2 h incubation at 37°.
# Quantitation of angiotensin I is performed by radioinununoassay (RIA kit from New England Nuclear-Dupont, Mississauga, ON, Canada). The enzymatic activity of renin is expressed in ng of angiotensin I generated/mL/2 h. The extent of inhibition of the reaction is determined from the amount of angiotensin I generated in reference to a control prepared without inhibitor. Nonlinear regression analysis is used to calculate the IC50 values, i.e. the molar concentration of the test compound required to cause a 50% inhibition of the enzyme activity.
# The following table exemplifies results obtained for compounds of formula 1.
row,IC50 [µM],Compound
1,0.038,"CC(C)C[C@H](O)[C@H](O)[C@H](CC1CCCCC1)NC(=O)[C@H](CC1CC1)C[C@@H](O)[C@H](O)Cc1ccccc1 [Corresponding (2R,4R,5R)-isomer of title compound of example 2]"
2,0.022,"CC(C)C[C@H](O)[C@H](O)[C@H](CC1CCCCC1)NC(=O)[C@H](CC1CC1)C[C@H](O)[C@@H](O)Cc1ccccc1 [Title compound of example 2, (2R, 4S, 5S)-N-[1(S)-(Cyclohexylmethyl)-2(R), 3(S)-dihydroxy-5-methylhexyl]-2-(cyclopropylmethyl)-4,5-dihydroxy-6-phenylhexanamide]"
3,0.11,"CC(C)C[C@H](O)[C@H](O)[C@H](CC1CCCCC1)NC(=O)[C@H](CC1CC1)C[C@H](O)[C@H](O)Cc1ccccc1 [Title compound of example 4, (2R, 4S , 5R)-N-[1(S)-(Cyclohexylmethyl)-2(R), 3(S)-dihydroxy-5methylhexyl]-2-(cyclopropylmethyl)-4,5-dihydroxy-6-phenylhexanamide]"
4,0.048,"CC(C)C[C@H](O)[C@H](O)[C@H](CC1CCCCC1)NC(=O)[C@H](CC1CC1)C[C@@H](O)[C@@H](O)Cc1ccccc1 [Title compound of example 5, (2R, 4R, 5S)-N-[1(S)-(Cyclohexylmethyl)-2(R), 3(S)-dihydroxy-5-methylhexyl]-2-(cyclopropylmethyl)-4,5-dihydroxy-6-phenylhexanamide]"
5,0.021,"CC(C)C[C@H](O)[C@H](O)[C@H](CC1CCCCC1)NC(=O)[C@H](CC1CC1)[C@@H](O)C[C@H](O)Cc1ccccc1 [Title compound of example 10, (2R,3S,5R)-N-[1(S)-(Cyclohexylmethyl)-2(R), 3(S)-dihydroxy-5-methylhexyl]-2-(cyclopropylmethyl)-3,5-dihydroxy-6-phenylhexanamide]"
6,0.26,"CC(C)C[C@H](O)[C@H](O)[C@H](CC1CCCCC1)NC(=O)[C@H](CC1CC1)[C@H](O)C[C@H](O)Cc1ccccc1 [Title compound of example 11, (2R,3R,5R)-N-[1(S)-(Cyclohexylmethyl)-2(R),3(S)-dihydroxy-5-methylhexyl]-2-(cyclopropylmethyl)-3,5-dihydroxy-6-phenylhexanamide]"
7,1,"CC(C)C[C@H](O)[C@H](O)[C@H](CC1CCCCC1)NC(=O)[C@H](CC1CC1)[C@H](O)C[C@@H](O)Cc1ccccc1 [Title compound of example 12, (2R, 3R, 5S)-N-[1(S)-(Cyclohexylmethyl)-2(R), 3(S)-dihydroxy-5-methylhexyl]-2-(cyclopropylmethyl)-3,5-dihydroxy-6-phenylhexanamide]"
8,0.175,CC(C)C[C@H](O)[C@H](O)[C@H](CC1CCCCC1)NC(=O)[C@H](CC1CC1)[C@@H](O)C[C@@H](O)Cc1ccccc1 [Title compound of example 13]

# Same assay, conditions: values in parentheses in the list of other examples; assay not restated there
row,IC50 [µM],Compound
1,0.173,CC(C)C[C@H](O)[C@H](O)[C@H](CC1CCCCC1)NC(=O)[C@H](Cc1cnc[nH]1)C[C@@H](O)[C@H](O)Cc1ccccc1
2,0.22,Cc1nc(C[C@H](C[C@H](O)[C@@H](O)Cc2ccccc2)C(=O)N[C@@H](CC2CCCCC2)[C@@H](O)[C@@H](O)CC(C)C)cs1
3,0.485,CC(C)C[C@H](O)[C@H](O)[C@H](CC1CCCCC1)NC(=O)[C@H](Cc1cccs1)C[C@H](O)[C@@H](O)Cc1ccccc1

# — patent US5354767A, “Renin inhibiting polyhydroxy-monoamides” (Bio-Mega, Inc., priority 1991, dated 1994)
